From patent US12310975B2, “Modulators of BCL6 proteolysis and associated methods of use” (Arvinas Operations, Inc., priority 2019, dated 2025)

Assays:
BCL6 [1] = molecular target: T1, BCL6 (Homo sapiens (Human), UniProt P41182); assay: BCL6 TR-FRET assay (BCL6-Avitag-Biotin / BCoR-Cy5 peptide); assay type: binding; settings: for IC50: read-out: IC50
Outline: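 After 30 min room-temperature preincubation of compound titrations with 2 nM biotinylated BCL6-Avitag, 100 nM Cy5-labelled BCoR peptide plus 2 nM Eu-streptavidin were added and TR-FRET read 2 h later. HEPES pH 7.5/125 mM NaCl buffer with Triton X, glutathione (or DTT) and BSA.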

BCL6 [2] = molecular target: T1, BCL6; assay: Immunofluorescence high content imaging of BCL6 degradation in T47D cells; assay type: cell-based
Outline: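 T47D cells were treated 3 days at 37 °C with an 11-point 3-fold dilution series (top 0.1 or 1 μM), then fixed, permeabilized and immunostained for BCL6 with Alexa-488 secondary, CellMask and Hoechst. BCL6 signal was imaged at 10×, 4 fields/well, with top-hat smoothing.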

| SMILES | EC50 (BCL6 [1]) | IC50 (BCL6 [2]) | Dmax (BCL6 [2]; T47D) | IC50 (BCL6 [2]; T47D cells) | Dmax (BCL6 [2]; T47D cells) | IC50 (BCL6 [1]) |
| --- | --- | --- | --- | --- | --- | --- |
| CNC(=O)COc1cc2cc(Nc3nc(N4CCN(CC5CCN(c6cccc(F)c6C(=O)NC6CCC(=O)NC6=O)CC5)CC4)ncc3Cl)ccc2n(C)c1=O (stereo not drawn) [compound 275, 2-[4-({4-[5-chloro-4-({1-methyl-3-[(methylcarbamoyl)methoxy]-2-oxo-1,2-dihydroquinolin-6-yl}amino)pyrimidin-2-yl]piperazin-1-yl}methyl)piperidin-1-yl]-N-(2,6-dioxopiperidin-3-yl)-6-fluorobenzamide] | 10 to 50 nM | < 10 nM | < 50% | – | – | – |
| CNC(=O)COc1cc2cc(Nc3nc(N4CCN(CC5CCN(c6ccc(C(=O)NC7CCC(=O)NC7=O)cc6)CC5)CC4)ncc3Cl)ccc2n(C)c1=O (stereo not drawn) [compound 276, 4-[4-({4-[5-chloro-4-({1-methyl-3-[(methylcarbamoyl)methoxy]-2-oxo-1,2-dihydroquinolin-6-yl}amino)pyrimidin-2-yl]piperazin-1-yl}methyl)piperidin-1-yl]-N-(2,6-dioxopiperidin-3-yl)benzamide] | < 10 nM | ≥ 100 nM | < 50% | – | – | – |
| CNC(=O)COc1cc2cc(Nc3nc(N4CCN(CC5CCN(c6ccc(F)c(C(=O)NC7CCC(=O)NC7=O)c6)CC5)CC4)ncc3Cl)ccc2n(C)c1=O (stereo not drawn) [compound 277, 5-[4-({4-[5-chloro-4-({1-methyl-3-[(methylcarbamoyl)methoxy]-2-oxo-1,2-dihydroquinolin-6-yl}amino)pyrimidin-2-yl]piperazin-1-yl}methyl)piperidin-1-yl]-N-(2,6-dioxopiperidin-3-yl)-2-fluorobenzamide] | < 10 nM | 10 to 50 nM | < 50% | – | – | – |
| CNC(=O)COc1cc2cc(Nc3nc(N4CCN(CC5CCN(c6ccc(C(=O)NC7CCC(=O)NC7=O)nn6)CC5)CC4)ncc3Cl)ccc2n(C)c1=O (stereo not drawn) [compound 278, 6-[4-({4-[5-chloro-4-({1-methyl-3-[(methylcarbamoyl)methoxy]-2-oxo-1,2-dihydroquinolin-6-yl}amino)pyrimidin-2-yl]piperazin-1-yl}methyl)piperidin-1-yl]-N-(2,6-dioxopiperidin-3-yl)pyridazine-3-carboxamide] | < 10 nM | 50 to 100 nM | < 50% | – | – | – |
| CNC(=O)COc1cc2cc(Nc3nc(N4CCN(C(C)(C)CN5CCN(c6ccc7c(c6)C(=O)N(C6CCC(=O)NC6=O)C7=O)CC5)CC4)ncc3Cl)ccc2n(C)c1=O (stereo not drawn) [compound 279, 2-{[6-({5-chloro-2-[4-(1-{4-[2-(2,6-dioxopiperidin-3-yl)-1,3-dioxo-2,3-dihydro-1H-isoindol-5-yl]piperazin-1-yl}-2-methylpropan-2-yl)piperazin-1-yl]pyrimidin-4-yl}amino)-1-methyl-2-oxo-1,2-dihydroquinolin-3-yl]oxy}-N-methylacetamide] | 10 to 50 nM | 10 to 50 nM | 50 to 70% | – | – | – |
| CNC(=O)COc1cc2cc(Nc3nc(N4CCN(CC(C)(C)N5CCN(c6ccc7c(c6)C(=O)N(C6CCC(=O)NC6=O)C7=O)CC5)CC4)ncc3Cl)ccc2n(C)c1=O (stereo not drawn) [compound 280, 2-{[6-({5-chloro-2-[4-(2-{4-[2-(2,6-dioxopiperidin-3-yl)-1,3-dioxo-2,3-dihydro-1H-isoindol-5-yl]piperazin-1-yl}-2-methylpropyl)piperazin-1-yl]pyrimidin-4-yl}amino)-1-methyl-2-oxo-1,2-dihydroquinolin-3-yl]oxy}-N-methylacetamide] | 10 to 50 nM | 10 to 50 nM | 50 to 70% | – | – | – |
| CNC(=O)COc1cc2cc(Nc3nc(N4CCN(CC5CCN(c6cnc(C(=O)NC7CCC(=O)NC7=O)cn6)CC5)CC4)ncc3Cl)ccc2n(C)c1=O (stereo not drawn) [compound 281, 5-[4-({4-[5-chloro-4-({1-methyl-3-[(methylcarbamoyl)methoxy]-2-oxo-1,2-dihydroquinolin-6-yl}amino)pyrimidin-2-yl]piperazin-1-yl}methyl)piperidin-1-yl]-N-(2,6-dioxopiperidin-3-yl)pyrazine-2-carboxamide] | 10 to 50 nM | < 10 nM | < 50% | – | – | – |
| CN1C(=O)CCc2cc(Nc3nc(N4CCN(CC5CCN(c6ccc7c(c6)C(=O)N(C6CCC(=O)NC6=O)C7=O)CC5)CC4)ncc3Cl)ccc21 (stereo not drawn) [compound 369, 5-{4-[(4-{5-chloro-4-[(1-methyl-2-oxo-1,2,3,4-tetrahydroquinolin-6-yl)amino]pyrimidin-2-yl}piperazin-1-yl)methyl]piperidin-1-yl}-2-(2,6-dioxopiperidin-3-yl)-2,3-dihydro-1H-isoindole-1,3-dione] | > 100 nM | – | – | ≥ 100 nM | – | – |
| CN1C(=O)CCc2cc(Nc3nc(N4CCN(CC5CCN(c6cccc7c6C(=O)N(C6CCC(=O)NC6=O)C7=O)CC5)CC4)ncc3Cl)ccc21 (stereo not drawn) [compound 378, 4-{4-[(4-{5-chloro-4-[(1-methyl-2-oxo-1,2,3,4-tetrahydroquinolin-6-yl)amino]pyrimidin-2-yl}piperazin-1-yl)methyl]piperidin-1-yl}-2-(2,6-dioxopiperidin-3-yl)-2,3-dihydro-1H-isoindole-1,3-dione] | > 100 nM | – | – | ≥ 100 nM | < 50% | – |
| CNC(=O)COc1cc2cc(Nc3nc(N4CC5(CCC(OC6CCN(c7ccc8c(c7)C(=O)N(C7CCC(=O)NC7=O)C8=O)CC6)CC5)C4)ncc3Cl)ccc2n(C(C)C)c1=O (stereo not drawn) [compound 444, 2-{[6-({5-chloro-2-[7-({1-[2-(2,6-dioxopiperidin-3-yl)-1,3-dioxo-2,3-dihydro-1H-isoindol-5-yl]piperidin-4-yl}oxy)-2-azaspiro[3.5]nonan-2-yl]pyrimidin-4-yl}amino)-2-oxo-1-(propan-2-yl)-1,2-dihydroquinolin-3-yl]oxy}-N-methylacetamide] | – | – | 50 to 70% | – | – | < 10 nM |
| CNC(=O)COc1cc2cc(Nc3nc(N4CC5(CCC(OC6CCN(c7cccc8c7C(=O)N(C7CCC(=O)NC7=O)C8=O)CC6)CC5)C4)ncc3Cl)ccc2n(C(C)C)c1=O (stereo not drawn) [compound 445, 2-{[6-({5-chloro-2-[7-({1-[2-(2,6-dioxopiperidin-3-yl)-1,3-dioxo-2,3-dihydro-1H-isoindol-4-yl]piperidin-4-yl}oxy)-2-azaspiro[3.5]nonan-2-yl]pyrimidin-4-yl}amino)-2-oxo-1-(propan-2-yl)-1,2-dihydroquinolin-3-yl]oxy}-N-methylacetamide] | – | – | ≥ 70% | – | – | < 10 nM |
| CNC(=O)COc1cc2cc(Nc3nc(N4CCC(OC5CC6(CCN(c7cccc8c7CN(C7CCC(=O)NC7=O)C8=O)CC6)C5)CC4)ncc3Cl)ccc2n(C(C)C)c1=O (stereo not drawn) [compound 446, 2-{[6-({5-chloro-2-[4-({7-[2-(2,6-dioxopiperidin-3-yl)-1-oxo-2,3-dihydro-1H-isoindol-4-yl]-7-azaspiro[3.5]nonan-2-yl}oxy)piperidin-1-yl]pyrimidin-4-yl}amino)-2-oxo-1-(propan-2-yl)-1,2-dihydroquinolin-3-yl]oxy}-N-methylacetamide] | – | – | ≥ 70% | – | – | < 10 nM |
| CNC(=O)COc1cc2cc(Nc3nc(N4CCC5(CC4)CN(CC4CCN(c6ccc(C(=O)NC7CCC(=O)NC7=O)c(OC)c6)CC4)C5)ncc3Cl)ccc2n(C(C)C)c1=O (stereo not drawn) [compound 447, 4-[4-({7-[5-chloro-4-({3-[(methylcarbamoyl)methoxy]-2-oxo-1-(propan-2-yl)-1,2-dihydroquinolin-6-yl}amino)pyrimidin-2-yl]-2,7-diazaspiro[3.5]nonan-2-yl}methyl)piperidin-1-yl]-N-(2,6-dioxopiperidin-3-yl)-2-methoxybenzamide] | – | – | ≥ 70% | – | – | 10 to 50 nM |
| CNC(=O)COc1cc2cc(Nc3nc(N4CCC(CN5CC6(CCN(c7cccc8c7CN(C7CCC(=O)NC7=O)C8=O)CC6)C5)CC4)ncc3Cl)ccc2n(C(C)C)c1=O (stereo not drawn) [compound 448, 2-{[6-({5-chloro-2-[4-({7-[2-(2,6-dioxopiperidin-3-yl)-1-oxo-2,3-dihydro-1H-isoindol-4-yl]-2,7-diazaspiro[3.5]nonan-2-yl}methyl)piperidin-1-yl]pyrimidin-4-yl}amino)-2-oxo-1-(propan-2-yl)-1,2-dihydroquinolin-3-yl]oxy}-N-methylacetamide] | – | – | 50 to 70% | – | – | < 10 nM |
| CNC(=O)COc1cc2cc(Nc3nc(N4CCC5(CC4)CN(CC4CCN(c6cccc(C(=O)NC7CCC(=O)NC7=O)c6F)CC4)C5)ncc3Cl)ccc2n(C(C)C)c1=O (stereo not drawn) [compound 450, 3-[4-({7-[5-chloro-4-({3-[(methylcarbamoyl)methoxy]-2-oxo-1-(propan-2-yl)-1,2-dihydroquinolin-6-yl}amino)pyrimidin-2-yl]-2,7-diazaspiro[3.5]nonan-2-yl}methyl)piperidin-1-yl]-N-(2,6-dioxopiperidin-3-yl)-2-fluorobenzamide] | – | – | ≥ 70% | – | – | < 10 nM |
| CNC(=O)COc1cc2cc(Nc3nc(N4CCN(CC5CCC6(CC5)CN(c5ccc7c(c5)C(=O)N(C5CCC(=O)NC5=O)C7=O)C6)CC4)ncc3Cl)ccc2n(C(C)C)c1=O (stereo not drawn) [compound 451, 2-{[6-({5-chloro-2-[4-({2-[2-(2,6-dioxopiperidin-3-yl)-1,3-dioxo-2,3-dihydro-1H-isoindol-5-yl]-2-azaspiro[3.5]nonan-7-yl}methyl)piperazin-1-yl]pyrimidin-4-yl}amino)-2-oxo-1-(propan-2-yl)-1,2-dihydroquinolin-3-yl]oxy}-N-methylacetamide] | – | – | 50 to 70% | – | – | < 10 nM |
| CNC(=O)COc1cc2cc(Nc3nc(N4CCN(CC5CCC6(CC5)CN(c5cccc7c5C(=O)N(C5CCC(=O)NC5=O)C7=O)C6)CC4)ncc3Cl)ccc2n(C(C)C)c1=O (stereo not drawn) [compound 452, 2-{[6-({5-chloro-2-[4-({2-[2-(2,6-dioxopiperidin-3-yl)-1,3-dioxo-2,3-dihydro-1H-isoindol-4-yl]-2-azaspiro[3.5]nonan-7-yl}methyl)piperazin-1-yl]pyrimidin-4-yl}amino)-2-oxo-1-(propan-2-yl)-1,2-dihydroquinolin-3-yl]oxy}-N-methylacetamide] | – | – | ≥ 70% | – | – | < 10 nM |
